The values below come from US8492428B2 (priority 2005, dated 2013).

In data set [1] the target is endopeptidase (LC) of botulinum neurotoxin serotype A (BoNTA) (Clostridium botulinum, UniProt P0DPI0). As to the kind of experiment: biochemical. Conditions: for inhibition at 100 µM: read-out: % Inhibition at 100 μM, BoNTA LC.
For data set [2], the target named is endopeptidase (LC) of botulinum neurotoxin serotype B (BoNTB) (Clostridium botulinum, UniProt P10844). As to the kind of experiment: biochemical. The format is biochemical. Conditions: for inhibition at 100 µM: read-out: % Inhibition at 100 μM, BoNTB LC.
A further data set has as its target BoNTA light chain (Clostridium botulinum, UniProt P0DPI0). As to the kind of experiment: biochemical.

“Also recorded” adds a separate entry of the source. Like-named read-outs stand apart in the source and are kept apart here.

endopeptidase (LC) of botulinum neurotoxin serotype A (BoNTA), sequence (P0DPI0 2-448 limits assumed): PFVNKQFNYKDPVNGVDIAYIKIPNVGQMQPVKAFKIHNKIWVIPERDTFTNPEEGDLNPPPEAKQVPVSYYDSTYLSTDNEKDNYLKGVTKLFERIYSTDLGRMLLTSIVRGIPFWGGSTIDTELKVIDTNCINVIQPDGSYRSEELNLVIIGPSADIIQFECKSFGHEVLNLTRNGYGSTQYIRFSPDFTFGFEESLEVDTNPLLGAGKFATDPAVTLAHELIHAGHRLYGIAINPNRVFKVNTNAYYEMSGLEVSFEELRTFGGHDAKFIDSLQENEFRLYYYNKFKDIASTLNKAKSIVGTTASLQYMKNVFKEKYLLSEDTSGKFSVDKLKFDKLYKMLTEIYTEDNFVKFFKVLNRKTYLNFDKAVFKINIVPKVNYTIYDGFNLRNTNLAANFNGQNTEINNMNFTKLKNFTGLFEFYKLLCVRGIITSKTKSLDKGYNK
endopeptidase (LC) of botulinum neurotoxin serotype B (BoNTB), sequence (P10844 2-441 limits assumed): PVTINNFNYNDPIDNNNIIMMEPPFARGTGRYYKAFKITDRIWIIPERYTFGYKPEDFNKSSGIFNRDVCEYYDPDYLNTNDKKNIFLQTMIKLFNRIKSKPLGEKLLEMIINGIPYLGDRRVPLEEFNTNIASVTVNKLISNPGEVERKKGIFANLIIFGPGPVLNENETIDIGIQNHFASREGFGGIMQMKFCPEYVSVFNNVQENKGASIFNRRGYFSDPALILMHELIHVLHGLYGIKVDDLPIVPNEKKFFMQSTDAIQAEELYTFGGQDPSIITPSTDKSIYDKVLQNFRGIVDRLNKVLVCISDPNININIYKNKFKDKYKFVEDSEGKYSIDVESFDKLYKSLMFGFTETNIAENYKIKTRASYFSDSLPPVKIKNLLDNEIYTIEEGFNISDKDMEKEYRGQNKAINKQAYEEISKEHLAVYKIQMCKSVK
BoNTA light chain, sequence (P0DPI0 2-448 limits assumed): as the sequence (P0DPI0 2-448 limits assumed) above

Usually inhibition stands for how much of the control response was suppressed. `O=C(O)Cc1cc(C(=O)c2ccc(Cl)cc2)sc1-c1ccccc1` [Compound 1, [5-(4-Chlorobenzoyl)-2-phenylthiophene-3-yl]acetic acid]: the inhibition at 100 µM in data set [1] was 15%.

In the case of `O=C(Cc1cc(C(=O)c2ccc(Cl)cc2)sc1-c1ccccc1)NO` [Compound 2, 2-[5-(4-Chlorobenzoyl)-2-phenylthiophene-3-yl]-N-hydroxyacetamide], in data set [1], the “inhibition of the endopeptidase of BoNTA, in words (comparisons)” value (“inhibition of the endopeptidase of BoNTA” for short) was “more active in inhibiting the endopeptidase than 1” and the inhibition at 100 µM was 30%. In data set [2], the “effect on the endopeptidase of BoNTB, in words” value (“effect on the endopeptidase” below) was “no effect” and the inhibition at 100 µM was 0%.

For orientation: melting point means the temperature, or range, at which the solid turns liquid. On to `Nc1cc(C(=O)c2cc(CC(=O)NO)c(-c3ccccc3)s2)ccc1I` [Compound 4, 2-[5-(3-Amino-4-iodobenzoyl)-2-phenylthiophene-3-yl]-N-hydroxyacetamide], for which the melting point was > 170 °C (dec.). In addition, in data set [1], the “inhibition of the endopeptidase of BoNTA” value was “more active in inhibiting the endopeptidase than 2” and the inhibition at 100 µM was 40%. In addition, in data set [2], the “effect on the endopeptidase” value is on record as “no effect” and the inhibition at 100 µM came to 0%.

In turn, `O=C(Cc1cc(C(=O)c2ccc(I)c([N+](=O)[O-])c2)sc1-c1ccccc1)NO` [Compound 5, 2-[5-(3-Nitro-4-iodobenzoyl)-2-phenylthiophene-3-yl]-N-hydroxyacetamide] gave a melting point of 147 to 151 °C.

For `NNC(=O)Cc1cc(C(=O)c2ccc(Br)cc2)sc1-c1ccccc1` [Compound 6, [5-(4-Bromobenzoyl)-2-phenylthiophene-3-yl]acetic acid hydrazide], the melting point was 157 to 161 °C.

Regarding `NNC(=O)Cc1cc(C(=O)c2ccc(I)c(N)c2)sc1-c1ccccc1` [Compound 7, [5-(3-Amino-4-iodobenzoyl)-2-phenylthiophene-3-yl]acetic acid hydrazide], the melting point is 159 to 165 °C.

Consider `O=C(O)Cc1cc(C(=O)c2ccc3cc(-c4ccccc4)[nH]c3c2)sc1-c1ccccc1` [Compound 8, [2-Phenyl-5-(2-phenyl-1H-indole-6-carbonyl)thiophene-3-yl]acetic acid], for which the “inhibition of the endopeptidase of BoNTA” value in data set [1] is “less potent in inhibiting the endopeptidase than 1 and 2”.

With `O=C(Cc1cc(C(=O)c2ccc3cc(-c4ccccc4)[nH]c3c2)sc1-c1ccccc1)NO` [Compound 9, N-Hydroxy-2-[2-phenyl-5-(2-phenyl-1H-indole-6-carbonyl)thiophene-3-yl]acetamide], the “inhibition of the endopeptidase of BoNTA” value in data set [1] was “less potent in inhibiting the endopeptidase than 1 and 2”.

As a reminder, the Ki is a dissociation constant, usually derived from enzyme kinetics or from competition with a known ligand. Low values mean higher affinity, high ones lower affinity. For the compound `Cl.NCCCCn1c(-c2ccccc2)cc2ccc(C(=O)c3cc(CC(=O)NO)c(-c4ccccc4)s3)cc21` [Compound 12, 2-{5-[1-(4-Aminobutyl)-2-phenyl-1H-indole-6-carbonyl]-2-phenylthiophene-3-yl}-N-hydroxyacetamide hydrochloride], in data set [1], the “effect of adding more zinc on the inhibition of BoNTA” value is reported as “no effect” and the inhibition at 100 µM amounted to 96%. The inhibition at 15 µM in data set [1] (read-out: % inhibition of BoNTA at 15 μM) came out at 48%. In addition, on BoNTA light chain, the Ki came out at 12 ± 2.6 µM. In data set [2] (hydrochloride), the “effect on the endopeptidase” value is given as “no effect; also recorded: did not inhibit”. Besides, in data set [2], the inhibition at 100 µM was 0%.
